Test results from US8609656B2, “Heteroarylphenylurea derivative” (Chugai Seiyaku Kabushiki Kaisha, priority 2004, dated 2013).
In brackets after ≈: the same amount, converted by molar mass. Counter-ions that a name gives are not always drawn.

Columns and labels:
[1] = molecular target: T1, recombinant Raf-1 protein (activated type GST-Raf-1) (Homo sapiens, UniProt P04049); assay: RAF-1 enzyme inhibition test (33P incorporation into MEK 1 protein); type: biochemical; conditions: 10 μM ATP, GST-MEK1 substrate, 30° C., 45 minutes; read-out: Raf-1 Enzyme Inhibition, 50% Enzyme Inhibition Concentration (IC50 value)
T1 construct: fused on or other part: GST tag fused to Raf-1
T1 sequence (P04049 349-648 limits assumed): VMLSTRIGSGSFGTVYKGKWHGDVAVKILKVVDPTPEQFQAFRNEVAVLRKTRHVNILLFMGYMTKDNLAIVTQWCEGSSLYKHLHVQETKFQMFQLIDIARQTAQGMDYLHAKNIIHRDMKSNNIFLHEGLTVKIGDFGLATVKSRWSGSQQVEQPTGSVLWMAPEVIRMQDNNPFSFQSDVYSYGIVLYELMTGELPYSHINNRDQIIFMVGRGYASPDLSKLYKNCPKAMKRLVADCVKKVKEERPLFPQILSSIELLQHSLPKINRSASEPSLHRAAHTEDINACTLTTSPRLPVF
Method: RAF-1 Enzyme Inhibition Test
With respect to the compounds relating to the present invention and the known compound (BAY 43-9006):
[drawing 660] the Raf-1 protein inhibition activity was measured. The enzymatic reaction was measured by incorporation of ^33P-phosphoric acid into MEK 1 protein by a recombinant Raf-1 protein. The activity was measured by preparing 50 μL of a reaction solution containing a dimethyl sulfoxide solution of the compound relating to the present invention or the compound BAY 43-9006 at a varied concentration [as the final concentration, the reaction solution containing […] of TRIS hydrochloric buffer (pH 7.5), 1 mM of dithiothreitol, 100 mM of sodium chloride, 10 mM of potassium fluoride, 1 mM of sodium vanadate, 10 mM of magnesium chloride, 10 μM of adenosine triphosphate (ATP, containing ^33P-ATP of 12580Bq), 2 μg of GST-MEK1 and 25 ng of an activated type GST-Raf-1]; keeping the reaction solution at 30° C. for 45 minutes; adding 100% trichloroacetic acid to the reaction solution in an amount twice the volume of the reaction solution to precipitate a proteinous component; recovering the precipitate on a glass filter; and measuring the radioactivity of the recovered product. The 50% inhibition concentration (IC50) was obtained from the inhibition ratio to a sample-free reference.
The compound BAYT 43-9006 was prepared on the basis of the description (Example 41) of WO 00/42012.

[2] = Solubility to fasted state simulated intestinal fluid; type: physicochemical; conditions: fassif, kinetic from dmso stock, fasted state simulated intestinal fluid (pH 6.5), 37° C.
Method: Method of Measuring Solubility to Fasted State Simulated Intestinal Fluid
To a 96-well plate, 2 μL of a dimethyl sulfoxide solution of the compound relating to the present invention or that of the compound BAY 43-9006 was poured at one time, respectively, and fasted state simulated intestinal fluid (pH 6.5) was added 200 μL by 200 μL, and the plate was shaken at 37° C. for 20 hours. The solution was filtered with a membrane filter and 101 μL of the filtrate was transferred to an UV plate, and 100 μL of a mixed solution of ethanol:water=2:1 was added thereto. On the other hand, as a standard solution, 2 μL of a dimethyl sulfoxide solution was added to a solution containing 4 μL of dimethyl sulfoxide, 400 μL of ethanol and 200 μL of water and the obtained solution was transferred 101 μL by 101 μL to the UV plate and to this UV plate, the simulated fasting bile-containing intestinal juice (pH 6.5) was added 100 μL by 100 μL. The solubility was calculated by the following equation. Solubility=(absorbance of sample solution-blank)/(absorbance of standard solution-blank)×[…]
165 μL is a concentration of the standard solution.
Composition of Fasted State Simulated Intestinal Fluid
Fasted state simulated intestinal fluid was prepared in accordance with E. Galia et al., Pharm. Res., 698, 1998.
To about 90 mL of water, 161 mg of taurocholic acid, 59 mg of L-α-phosphatidylcholine, 0.39 g of potassium dihydrogenphosphate and 0.77 g of potassium chloride were added and the pH of the mixture solution […] and the mixture solution was filtered with a membrane filter.

Row | SMILES | IC50 [1] | solubility at 20 h [2]
1 | CC(=O)Oc1cccc2c1ccn2-c1ccc(NC(=O)Nc2ccc(Cl)c(C(F)(F)F)c2)cc1 [Table 1, Compound 18, Acetic acid 1-{4-[3-(4-chloro-3-(trifluoromethyl)phenyl)ureido]phenyl}-1H-indol-4-yl ester] | 47 nM | 
2 | CNCCOc1cccc2c1ccn2-c1ccc(NC(=O)Nc2ccc(Cl)c(C(F)(F)F)c2)cc1.Cl [Table 1, Compound 21, 1-(4-Chloro-3-(trifluoromethyl)phenyl)-3-{4-[4-(2-methylamino-ethoxy)-indol-1-yl]phenyl}urea hydrochloride] |  | 24 µg/mL
3 | Nc1ncnc2c1ncn2-c1ccc(NC(=O)Nc2ccc(Cl)c(C(F)(F)F)c2)cc1 [Table 1, Compound 30, 1-[4-(6-Aminopurin-9-yl)phenyl]-3-(4-chloro-3-(trifluoromethyl)phenyl)urea hydrochloride] | 33 nM | 
4 | Cl.Nc1ncc2ncn(-c3ccc(NC(=O)Nc4ccc(Cl)c(C(F)(F)F)c4)cc3)c2n1 [Table 1, Compound 34, 1-[4-(2-Aminopurin-9-yl)phenyl]-3-(4-chloro-3-(trifluoromethyl)phenyl)urea hydrochloride] |  | 34 µg/mL
5 | O=C(Nc1ccc(Cl)c(C(F)(F)F)c1)N(O)c1ccc(-n2cnc3ncncc32)cc1 [Table 1, Compound 46, 1-(4-Chloro-3-(trifluoromethyl)phenyl)-3-hydroxy-3-(4-purin-7-ylphenyl)urea] | 67 nM | 
6 | CN(C)CCNC(=O)c1nccc2c1ncn2-c1ccc(NC(=O)Nc2ccc(Cl)c(C(F)(F)F)c2)cc1 [Table 1, Compound 92, 1-(4-[3-(4-Chloro-3-(trifluoro-methyl)phenyl)ureido]phenyl}-1H-imidazo[4,5-c]pyridine-4-carboxylic acid (2-dimethyl-aminoethyl)amide] |  | 76 µg/mL (≈ 139 µM)
7 | COCCOCCOCC(=O)Nc1ncnc2c1ncn2-c1ccc(NC(=O)Nc2ccc(Cl)c(C(F)(F)F)c2)cc1 [Table 1, Compound 109, N-(9-{4-[3-(4-Chloro-3-(tri-fluoromethyl)phenyl)ureido]-phenyl}-9H-purin-6-yl)-2-[2-(2-methoxyethoxy)ethoxy]acetamide] |  | 39 µg/mL (≈ 64.1 µM)
8 | COCCOC(=O)Nc1ncnc2c1ncn2-c1ccc(NC(=O)Nc2ccc(Cl)c(C(F)(F)F)c2)cc1 [Table 1, Compound 115, (9-{4-[3-(4-Chloro-3-(tri-fluoromethyl)phenyl)ureido]-phenyl}-9H-purin-6-yl)carbamic acid 2-methoxyethyl ester] |  | 19 µg/mL (≈ 34.6 µM)
9 | C=Cc1nc2c(N)ncnc2n1-c1ccc(NC(=O)Nc2ccc(Cl)c(C(F)(F)F)c2)cc1 [Table 2, Compound 8, 1-[4-(6-Amino-8-vinylpurin-9-yl)phenyl]-3-(4-chloro-3-(tri-fluoromethyl)phenyl)urea] | 29 nM | 
10 | O=C(Nc1ccc(-n2cnc3c(NCCN4CCOCC4)ncnc32)cc1)Nc1ccc(Cl)c(C(F)(F)F)c1 [Table 2, Compound 11, 1-(4-Chloro-3-(trifluoromethyl)-phenyl)-3-{4-[6-(2-morpholin-4-yl-ethylamino)purin-9-yl]-phenyl}urea] |  | 38 µg/mL (≈ 67.7 µM)
11 | CN(C)Cc1nc2c(N)ncnc2n1-c1ccc(NC(=O)Nc2ccc(Cl)c(C(F)(F)F)c2)cc1 [Table 2, Compound 12, 1-[4-(6-Amino-8-dimethylamino-methyl-purin-9-yl)phenyl]-3-(4-chloro-3-(trifluoromethyl)-phenyl)urea] |  | 265 µg/mL (≈ 525 µM)
12 | C=Cc1nc2c(NC(=O)NCCC)ncnc2n1-c1ccc(NC(=O)Nc2ccc(Cl)c(C(F)(F)F)c2)cc1 [Table 2, Compound 13, 1-(9-{4-[3-(4-Chloro-3-(tri-fluoromethyl)phenyl)ureido]-phenyl}-8-vinyl-9H-purin-6-yl)-3-propylurea] | 15 nM | 
13 | CNc1ncnc2c1nc(OC)n2-c1ccc(NC(=O)Nc2ccc(Cl)c(C(F)(F)F)c2)cc1 [Table 2, Compound 21, 1-(4-Chloro-3-(trifluoromethyl)-phenyl)-3-[4-(8-methoxy-6-(methylamino)purin-9-yl)phenyl]-urea] |  | 120 µg/mL (≈ 244 µM)
14 | CN1CCN(Cc2cc(NC(=O)Nc3ccc(-n4c(I)nc5c(N)ncnc54)cc3)cc(C(F)(F)F)c2)CC1 [Table 2, Compound 27] | 67 nM | 
15 | CCc1nc2c(N)ncnc2n1-c1ccc(NC(=O)Nc2cc(CN3CCN(C)CC3)cc(C(F)(F)F)c2)cc1 [Table 2, Compound 32] |  | 175 µg/mL (≈ 316 µM)
16 | CN1CCN(Cc2cc(NC(=O)Nc3ccc(-n4cnc5c(C(N)=O)nccc54)cc3)cc(C(F)(F)F)c2)CC1 [Table 2, Compound 33, 1-(4-{3-[3-(4-Methylpiperazin-1-ylmethyl)-5-(trifluoromethyl)-phenyl]ureido}-phenyl)-1H-imidazo[4,5-c]pyridine-4-carboxamide] |  | 193 µg/mL (≈ 349 µM)
17 | CN(C)CCN(C)c1ccc(NC(=O)Nc2ccc(-n3cnc4c(N)ncnc43)cc2)cc1C(F)(F)F [Table 2, Compound 35, 1-[4-(6-Aminopurin-9-yl)phenyl]-3-{4-[(2-dimetylaminoethyl)-methylamino]-3-(trifluoro-methyl)phenyl]urea] |  | 149 µg/mL (≈ 290 µM)
18 | CNc1ncnc2c1ncn2-c1ccc(NC(=O)Nc2cc(C(=O)N3CCN(C)CC3)cc(C(F)(F)F)c2)cc1 [Table 2, Compound 39] |  | 48 µg/mL (≈ 86.7 µM)
19 | CNc1ncnc2c1ncn2-c1ccc(NC(=O)Nc2cc(C(=O)NCCN(C)C)cc(C(F)(F)F)c2)cc1 [Table 2, Compound 40, N-(2-Dimethylaminoethyl)-3-{3-[4-(6-(methylamino)purin-9-yl)phenyl]ureido}-5-(trifluoromethyl)benzamide] | 75 nM | 
20 | CNc1ncnc2c1ncn2-c1ccc(NC(=O)Nc2cc(C(=O)NCC(O)CO)cc(C(F)(F)F)c2)cc1 (stereo not drawn) [Table 2, Compound 57] | 130 nM | 
21 | CNc1ncnc2c1ncn2-c1ccc(NC(=O)Nc2cc(CCN(C)C)cc(C(F)(F)F)c2)cc1 [Table 2, Compound 71, 1-[3-(2-Dimethylamino-ethyl)-5-(trifluoromethyl)phenyl]-3-[4-(6-(methylamino)purin-9-yl)phenyl]urea] | 190 nM | 
22 | CNc1ncnc2c1ncn2-c1ccc(NC(=O)Nc2cc(CCN3CCOCC3)cc(C(F)(F)F)c2)cc1 [Table 2, Compound 73, 1-[4-(6-(Methylamino)purin-9-yl)phenyl]-3-[3-(2-morpholin-4-yl-ethyl)-5-(trifluoromethyl)phenyl]urea] | 84 nM | 
23 | CNc1ncnc2c1ncn2-c1ccc(NC(=O)Nc2ccc(CCCN3CCCC3)c(C(F)(F)F)c2)cc1 [Table 2, Compound 77, 1-[4-(6-(Methylamino)purin-9-yl)phenyl]-3-[4-[3-pyrrolidin-1-yl-propyl]-3-(trifluoromethyl)phenyl]-urea] |  | 34 µg/mL (≈ 63.1 µM)
24 | CNc1ncnc2c1ncn2-c1ccc(NC(=O)Nc2ccc(CNCCN3CCCC3)c(C(F)(F)F)c2)cc1 [Table 3, Compound 15] |  | 104 µg/mL (≈ 188 µM)
25 | CNc1ncnc2c1ncn2-c1ccc(NC(=O)Nc2ccc(CCN(C)CCN(C)C)c(C(F)(F)F)c2)cc1 [Table 3, Compound 36, 1-(4-{2-[(2-(Dimethylamino)ethyl)-methylamino]-ethyl}-3-(trifluoromethyl)phenyl)-3-[4-(6-(methylamino)-purin-9-yl)phenyl]urea] |  | 107 µg/mL (≈ 193 µM)
26 | CNc1ncnc2c1ncn2-c1ccc(NC(=O)Nc2ccc(CCN3CCN(C(C)C)CC3)c(C(F)(F)F)c2)cc1 [Table 3, Compound 37, 1-{4-[2-(4-Isopropyl-piperazin-1-yl)ethyl]-3-(trifluoromethyl)phenyl}-3-[4-(6-(methylamino)purin-9-yl)phenyl]urea] |  | 193 µg/mL (≈ 332 µM)
27 | CNc1ncnc2c1ncn2-c1ccc(NC(=O)Nc2ccc(CCN(C)CCCN(C)C)c(C(F)(F)F)c2)cc1 [Table 3, Compound 38, 1-(4-{2-[(3-(Dimethylamino)propyl)methylamino]ethyl}-3-(trifluoromethyl)phenyl)-3-[4-(6-(methylamino)purin-9-yl)phenyl]urea] |  | 147 µg/mL (≈ 258 µM)
